pIC50: −log10 of the molar value.
Tests used:
Assay in all cases: cells
SK-MEL-24 = assay type: functional, cell-based; settings: Homo sapiens
Description: SANGER: Inhibition of human SK-MEL-24 cell growth in a cell viability assay.

IGR-1 = assay type: functional, cell-based; settings: Homo sapiens
Description: SANGER: Inhibition of human IGR-1 cell growth in a cell viability assay.

GCT = assay type: functional, cell-based; settings: Homo sapiens
Description: SANGER: Inhibition of human GCT cell growth in a cell viability assay.

UMC-11 = assay type: functional, cell-based; settings: Homo sapiens
Description: SANGER: Inhibition of human UMC-11 cell growth in a cell viability assay.

S-117 = assay type: functional, cell-based; settings: Homo sapiens
Description: SANGER: Inhibition of human S-117 cell growth in a cell viability assay.

SCC-25 = assay type: functional, cell-based; settings: Homo sapiens
Description: SANGER: Inhibition of human SCC-25 cell growth in a cell viability assay.

MDA-MB-157 = assay type: functional, cell-based; settings: Homo sapiens
Description: SANGER: Inhibition of human MDA-MB-157 cell growth in a cell viability assay.

DBTRG-05MG = assay type: functional, cell-based; settings: Homo sapiens
Description: SANGER: Inhibition of human DBTRG-05MG cell growth in a cell viability assay.

UO-31 = assay type: functional, cell-based; settings: Homo sapiens
Description: SANGER: Inhibition of human U031 cell growth in a cell viability assay.

MDA-MB-415 = assay type: functional, cell-based; settings: Homo sapiens
OVCAR-3 = assay type: functional, cell-based; settings: Homo sapiens
Description: SANGER: Inhibition of human OVCAR-3 cell growth in a cell viability assay.

HuO9 = assay type: functional, cell-based; settings: Homo sapiens
Description: SANGER: Inhibition of human HuO9 cell growth in a cell viability assay.

CAL-85-1 = assay type: functional, cell-based; settings: Homo sapiens
Description: SANGER: Inhibition of human CAL-85-1 cell growth in a cell viability assay.

SW13 = assay type: functional, cell-based; settings: Homo sapiens
Description: SANGER: Inhibition of human SW13 cell growth in a cell viability assay.

HCC1569 = assay type: functional, cell-based; settings: Homo sapiens
Description: SANGER: Inhibition of human HCC1569 cell growth in a cell viability assay.

NCI-H2347 = assay type: functional, cell-based; settings: Homo sapiens
Description: SANGER: Inhibition of human NCI-H2347 cell growth in a cell viability assay.

D-392MG = assay type: functional, cell-based; settings: Homo sapiens
P12-Ichikawa = assay type: functional, cell-based; settings: Homo sapiens
KU-19-19 = assay type: functional, cell-based; settings: Homo sapiens
Description: SANGER: Inhibition of human KU-19-19 cell growth in a cell viability assay.

MIA PaCa-2 = assay type: functional, cell-based; settings: Homo sapiens
Description: SANGER: Inhibition of human MIA-PaCa-2 cell growth in a cell viability assay.

HSC-3 = assay type: functional, cell-based; settings: Homo sapiens
Description: SANGER: Inhibition of human HSC-3 cell growth in a cell viability assay.

MHH-ES-1 = assay type: functional, cell-based; settings: Homo sapiens
Description: SANGER: Inhibition of human MHH-ES-1 cell growth in a cell viability assay.

CAL-54 = assay type: functional, cell-based; settings: Homo sapiens
Description: SANGER: Inhibition of human CAL-54 cell growth in a cell viability assay.

NB14 = assay type: functional, cell-based, Homo sapiens; settings: Homo sapiens, NB14
Description: SANGER: Inhibition of human NB14 cell growth in a cell viability assay.

SW1990 = assay type: functional, cell-based; settings: Homo sapiens
Description: SANGER: Inhibition of human SW1990 cell growth in a cell viability assay.

AU565 = assay type: functional, cell-based; settings: Homo sapiens
Description: SANGER: Inhibition of human AU565 cell growth in a cell viability assay.

RO82-W-1 = assay type: functional, cell-based; settings: Homo sapiens
Description: SANGER: Inhibition of human RO82-W-1 cell growth in a cell viability assay.

KYSE-180 = assay type: functional, cell-based; settings: Homo sapiens
Description: SANGER: Inhibition of human KYSE-180 cell growth in a cell viability assay.

A2780 = assay type: functional, cell-based; settings: Homo sapiens
Description: SANGER: Inhibition of human A2780 cell growth in a cell viability assay.

NCI-H520 = assay type: functional, cell-based; settings: Homo sapiens
Description: SANGER: Inhibition of human NCI-H520 cell growth in a cell viability assay.

BPH-1 = assay type: functional, cell-based; settings: Homo sapiens
Description: SANGER: Inhibition of human BPH-1 cell growth in a cell viability assay.

UACC-62 = assay type: functional, cell-based; settings: Homo sapiens
Description: SANGER: Inhibition of human UACC-62 cell growth in a cell viability assay.

NCI-H292 = assay type: functional, cell-based; settings: Homo sapiens
Description: SANGER: Inhibition of human NCI-H292 cell growth in a cell viability assay.

MKN-45 = assay type: functional, cell-based; settings: Homo sapiens
Description: SANGER: Inhibition of human MKN45 cell growth in a cell viability assay.

H4 = assay type: functional, cell-based; settings: Homo sapiens
Description: SANGER: Inhibition of human H4 cell growth in a cell viability assay.

HuO-3N1 = assay type: functional, cell-based; settings: Homo sapiens
Description: SANGER: Inhibition of human HuO-3N1 cell growth in a cell viability assay.

SW948 = assay type: functional, cell-based; settings: Homo sapiens
Description: SANGER: Inhibition of human SW948 cell growth in a cell viability assay.

KYSE-450 = assay type: functional, cell-based; settings: Homo sapiens
Description: SANGER: Inhibition of human KYSE-450 cell growth in a cell viability assay.

SiHa = assay type: functional, cell-based; settings: Homo sapiens
Description: SANGER: Inhibition of human SiHa cell growth in a cell viability assay.

COLO-792 = assay type: functional, cell-based; settings: Homo sapiens
Description: SANGER: Inhibition of human COLO-792 cell growth in a cell viability assay.

NCI-H2122 = assay type: functional, cell-based; settings: Homo sapiens
Description: SANGER: Inhibition of human NCI-H2122 cell growth in a cell viability assay.

786-0 = assay type: functional, cell-based; settings: Homo sapiens
Description: SANGER: Inhibition of human 786-0 cell growth in a cell viability assay.

CHP-212 = assay type: functional, cell-based; settings: Homo sapiens
Description: SANGER: Inhibition of human CHP-212 cell growth in a cell viability assay.

## CN(NC(=O)CC(=O)NN(C)C(=S)c1ccccc1)C(=S)c1ccccc1 [ELESCLOMOL]
SK-MEL-24
  pIC50: < 6.70
IGR-1
  pIC50: < 6.70
GCT
  pIC50: 7.63
UMC-11
  pIC50: < 6.70
S-117
  pIC50: 7.56
SCC-25
  pIC50: 7.64
MDA-MB-157
  pIC50: 8.53
DBTRG-05MG
  pIC50: 8.01
UO-31
  pIC50: 7.87
MDA-MB-415
  pIC50: 6.86
OVCAR-3
  pIC50: 8.21
HuO9
  pIC50: 7.67
CAL-85-1
  pIC50: 7.14
SW13
  pIC50: 8.11
HCC1569
  pIC50: < 6.70
NCI-H2347
  pIC50: 7.54
D-392MG
  pIC50: 7.10
P12-Ichikawa
  pIC50: 8.39
KU-19-19
  pIC50: 8.15
MIA PaCa-2
  pIC50: 7.77
HSC-3
  pIC50: 8.52
MHH-ES-1
  pIC50: 8.24
CAL-54
  pIC50: < 6.70
NB14
  pIC50: 8.18
SW1990
  pIC50: 8.36
AU565
  pIC50: 7.23
RO82-W-1
  pIC50: 7.58
KYSE-180
  pIC50: 7.62
A2780
  pIC50: 9.23
NCI-H520
  pIC50: 6.87
BPH-1
  pIC50: 7.08
UACC-62
  pIC50: 7.63
NCI-H292
  pIC50: 9.05
MKN-45
  pIC50: 7.54
H4
  pIC50: 8.14
HuO-3N1
  pIC50: 7.62
SW948
  pIC50: < 6.70
KYSE-450
  pIC50: 7.41
SiHa
  pIC50: 7.51
COLO-792
  pIC50: 7.54
NCI-H2122
  pIC50: 6.89
786-0
  pIC50: 7.89
CHP-212
  pIC50: 8.13

## Cc1ccc(-n2nc(C(C)(C)C)cc2NC(=O)Nc2ccc(OCCN3CCOCC3)c3ccccc23)cc1 [DORAMAPIMOD]
SK-MEL-24
  pIC50: < 5.00
IGR-1
  pIC50: < 5.00
GCT
  pIC50: < 5.00
UMC-11
  pIC50: < 5.00
S-117
  pIC50: < 5.00
SCC-25
  pIC50: < 5.00
MDA-MB-157
  pIC50: < 5.00
DBTRG-05MG
  pIC50: < 5.00
UO-31
  pIC50: < 5.00
MDA-MB-415
  pIC50: < 5.00
OVCAR-3
  pIC50: < 5.00
HuO9
  pIC50: < 5.00
CAL-85-1
  pIC50: < 5.00
SW13
  pIC50: < 5.00
HCC1569
  pIC50: < 5.00
NCI-H2347
  pIC50: < 5.00
D-392MG
  pIC50: < 5.00
P12-Ichikawa
  pIC50: < 5.00
KU-19-19
  pIC50: < 5.00
MIA PaCa-2
  pIC50: < 5.00
HSC-3
  pIC50: < 5.00
MHH-ES-1
  pIC50: < 5.00
CAL-54
  pIC50: < 5.00
NB14
  pIC50: < 5.00
SW1990
  pIC50: < 5.00
AU565
  pIC50: < 5.00
RO82-W-1
  pIC50: < 5.00
KYSE-180
  pIC50: < 5.00
A2780
  pIC50: < 5.00
NCI-H520
  pIC50: < 5.00
BPH-1
  pIC50: < 5.00
UACC-62
  pIC50: < 5.00
NCI-H292
  pIC50: < 5.00
MKN-45
  pIC50: < 5.00
H4
  pIC50: < 5.00
HuO-3N1
  pIC50: < 5.00
SW948
  pIC50: < 5.00
KYSE-450
  pIC50: < 5.00
SiHa
  pIC50: < 5.00
COLO-792
  pIC50: < 5.00
NCI-H2122
  pIC50: < 5.00
786-0
  pIC50: < 5.00
CHP-212
  pIC50: < 5.00

## O=C1NC(=O)c2c1c(-c1ccccc1Cl)cc1[nH]c3ccc(O)cc3c21
SK-MEL-24
  pIC50: < 5.70
IGR-1
  pIC50: < 5.70
GCT
  pIC50: < 5.70
UMC-11
  pIC50: < 5.70
S-117
  pIC50: < 5.70
SCC-25
  pIC50: < 5.70
MDA-MB-157
  pIC50: < 5.70
DBTRG-05MG
  pIC50: < 5.70
UO-31
  pIC50: < 5.70
OVCAR-3
  pIC50: < 5.70
HuO9
  pIC50: 5.71
CAL-85-1
  pIC50: < 5.70
SW13
  pIC50: < 5.70
HCC1569
  pIC50: < 5.70
NCI-H2347
  pIC50: < 5.70
D-392MG
  pIC50: < 5.70
P12-Ichikawa
  pIC50: 6.32
KU-19-19
  pIC50: < 5.70
MIA PaCa-2
  pIC50: < 5.70
HSC-3
  pIC50: 5.93
MHH-ES-1
  pIC50: < 5.70
CAL-54
  pIC50: < 5.70
NB14
  pIC50: < 5.70
SW1990
  pIC50: 5.93
AU565
  pIC50: < 5.70
RO82-W-1
  pIC50: < 5.70
KYSE-180
  pIC50: < 5.70
A2780
  pIC50: < 5.70
NCI-H520
  pIC50: < 5.70
BPH-1
  pIC50: 5.97
UACC-62
  pIC50: < 5.70
NCI-H292
  pIC50: 6.34
MKN-45
  pIC50: 6.07
H4
  pIC50: 6.02
HuO-3N1
  pIC50: < 5.70
SW948
  pIC50: < 5.70
KYSE-450
  pIC50: < 5.70
SiHa
  pIC50: < 5.70
COLO-792
  pIC50: < 5.70
NCI-H2122
  pIC50: < 5.70
786-0
  pIC50: < 5.70
CHP-212
  pIC50: 6.21

## CS(=O)(=O)N1CCN(Cc2cc3nc(-c4cccc5[nH]ncc45)nc(N4CCOCC4)c3s2)CC1 [PICTILISIB]
SK-MEL-24
  pIC50: < 5.40
IGR-1
  pIC50: < 5.40
GCT
  pIC50: < 5.40
UMC-11
  pIC50: < 5.40
S-117
  pIC50: < 5.40
SCC-25
  pIC50: 6.04
MDA-MB-157
  pIC50: 5.55
DBTRG-05MG
  pIC50: < 5.40
UO-31
  pIC50: < 5.40
MDA-MB-415
  pIC50: 5.83
OVCAR-3
  pIC50: < 5.40
HuO9
  pIC50: 6.69
CAL-85-1
  pIC50: < 5.40
SW13
  pIC50: < 5.40
HCC1569
  pIC50: < 5.40
NCI-H2347
  pIC50: < 5.40
D-392MG
  pIC50: < 5.40
P12-Ichikawa
  pIC50: < 5.40
KU-19-19
  pIC50: 6.29
MIA PaCa-2
  pIC50: < 5.40
HSC-3
  pIC50: 6.08
MHH-ES-1
  pIC50: < 5.40
CAL-54
  pIC50: 5.97
NB14
  pIC50: < 5.40
SW1990
  pIC50: < 5.40
AU565
  pIC50: 5.88
RO82-W-1
  pIC50: < 5.40
KYSE-180
  pIC50: < 5.40
A2780
  pIC50: < 5.40
NCI-H520
  pIC50: 5.96
BPH-1
  pIC50: 6.50
UACC-62
  pIC50: < 5.40
NCI-H292
  pIC50: 6.01
H4
  pIC50: 6.07
HuO-3N1
  pIC50: 6.19
SW948
  pIC50: < 5.40
KYSE-450
  pIC50: < 5.40
SiHa
  pIC50: < 5.40
COLO-792
  pIC50: < 5.40
NCI-H2122
  pIC50: < 5.40
786-0
  pIC50: 5.59
CHP-212
  pIC50: 5.66

Reference: ChEMBL document CHEMBL1201861, “Genomics of Drug Sensitity in Cancer screening data, Wellcome Trust Sanger Institute”
